Results on four compounds are retold here after patent US20040132819A1, “Appetite control method” (priority 2002, published 2004).

Where two headings read alike, the source gives them in different places.

Data set [1] deals with diet-restricted BALB/c mice. Conditions: cited from earlier work.
For data set [2] the following is noted: pre-satiated rats, subcutaneous, all doses; cited from earlier work.
The test system of data set [3] is rat brain N-acylethanolamines. Put plainly: N-acylethanolamine (NAE) levels in rat brain. It is filed as in vivo, Sprague-Dawley rat. The protocol:
(§1) Total lipid was extracted from rat brains using the Folch extraction method, typical for lipid extraction (Folch et al, 1957). The total lipid extract from each rat brain was separated into neutral lipid and phospholipid fractions using a silica cartridge. The neutral lipid fraction was further separated into MAG and NAE fractions using High Performance Liquid Chromatography (HPLC). Fatty acid composition of the MAG, NAE, and phospholipid fractions was determined using Gas-Liquid Chromatography (GLC) after derivatizing to the corresponding fatty acid methyl esters. The fatty acid composition results correspond to total fatty acids in the membrane phospholipids in brain, and the MAG and NAE fatty acid results represent the concentration of these fatty acyl derivatives in rat brains.
(§2) Rat brain samples, stored frozen at −70° C., were separated into the two hemispheres; one half was used for determination of fatty acids in phospholipid, MAG, and NAE fractions and the other half was refrozen at −70° C. The half brain for analysis was transferred to a 50-mL glass centrifuge tube. Eight mL of methanol was added and the sample homogenized using a Polytron Dispersing and Mixing System (Kinematica, Switzerland) until well blended. The homogenizer probe was rinsed with 2 mL methanol added directly into the centrifuge tube. Twenty mL of chloroform was then added to the sample and mixed vigorously by shaking. The sample was left undisturbed at room temperature for at least 1 hour. Known amounts of internal standards, 9.91 μg of monoheptadecanoin and 3.32 μg of docosatrienoyl ethanolamine, were added. Six mL of 0.9% saline was then added and the sample mixed vigorously by shaking. The sample was then centrifuged for 7 minutes at 2000 rpm at 15° C. until the organic and aqueous layers were well separated using a Beckman Allegra™ 6R Centrifuge; Fullerton, Calif.). The chloroform (bottom) layer was aspirated into a clean 30-mL test tube. The sample was then evaporated to dryness under N2 and was either stored at −20° C. or reconstituted in 500 μL of chloroform. […]

Data set [4] has as its system rat brain monoacylglycerols. Put plainly: Monoacylglycerol (MAG) levels in rat brain. It is filed as in vivo, Sprague-Dawley rat. Particulars: ANOVA main effect. On the procedure: as §1
Rat brain samples, stored frozen at −70° C., were separated into the two hemispheres; one half was used for determination of fatty acids in phospholipid, MAG, and NAE fractions and the other half was refrozen at −70° C. The half brain for analysis was transferred to a 50-mL glass centrifuge tube. Eight mL of methanol was added and the sample homogenized using a Polytron Dispersing and Mixing System (Kinematica, Switzerland) until well blended. The homogenizer probe was rinsed with 2 mL methanol added directly into the centrifuge tube. […]

Data set [5] has as its system rat brain phospholipid membrane. Put plainly: Fatty acid levels in rat brain phospholipid membrane. It is filed as in vivo, Sprague-Dawley rat. Conditions: ANOVA main effect. The protocol: as §1, §2
Data set [6] in a line: Postprandial leptin and circulating insulin levels. It is filed as in vivo, Sprague-Dawley rat. The protocol:
The rat pups were sacrificed by decapitation on day 20 after the food intake phase and final body weights were taken. The brain was removed, weighed, and quickly frozen (within 5 minutes) in liquid nitrogen. Brain tissue was stored in a −70° C. freezer. Blood was collected from the neck stump, mixed with heparin, placed on ice, and centrifuged to ensure adequate phase separation to prepare plasma. Plasma was stored at −70° C.
Postprandial leptin levels in the rats fed the ARA-containing formulas during the formula feeding phase were about 20-30% lower than for rats fed the formulas without ARA. Postprandial leptin levels in the rats fed the DHA-containing formulas were about 5-15% higher than for rats fed the formulas without DHA. No differences in circulating insulin levels were found among the groups.

In the next data set the test system is brain NAEs and MAGs. Conditions: piglets fed 0.2% AA (percent total fatty acids); cited from earlier work.
Data set [7] in a line: Deaths during artificial rearing. It is filed as in vivo, Sprague-Dawley rat. Conditions: combined rearings; vs 10 rats without DHA, p=0.054. An excerpt: Male rat pups were removed from dams on postnatal day 6 and artificially reared on rat milk formulas to day 18. This procedure has been described in detail in the literature by Sonnenberg et al, 1982; Smart et al, 1983 and 1984; and Auestad et al, 1989. Similar procedures have been also been described by Ward et al, 1998, and Wainwright et al, 1999. On postnatal day 6, rat pups were randomly assigned to one of the four experimental rat milk formula groups (Table 3.2). The rat pups were lightly anesthetized, fitted with an intragastric cannula, and placed individually in pint-sized plastic containers free floating in a waterbath maintained at 36±2° C. The cannulae for individual rat pups were each connected to syringes filled with one of the four experimental rat milk formulas using polyethylene tubing. The rat pups were fed by intermittent, intragastric infusion, from day 6 to day 18. The formula was delivered to the rat pups for 20 or 30 min each hour, depending on the age of the rat, using a programmable pump housed in a bench-top refrigerator. The pump settings were modified daily to deliver specific quantities of rat milk formula to the rat pups to support normal growth.
Two groups of rats were artificially reared one in February 2002 and one in April 2002. The plan was to cannulate a total of 64 rats, thirty-two per rearing and 8 rats per experimental formula group. […]

Data set [8] has as its system hypothalamic 20:4n-6 NAE and 20:4n-6 MAG. Particulars: 125 or 250 μg intravenously, within 30 minutes, normal Sprague-Dawley rats; cited from earlier work.

For `CCCCC/C=C\C/C=C\C/C=C\C/C=C\CCCC(=O)NCCO` [20:4n-6 NAE, 5,8,11,14-eicosatetraenamide, (N-2-hydroxyethyl)-(all-Z)], the “food consumption vs control group” value in data set [1] (0.001 mg/kg intraperitoneally, 40% calorie restriction) is listed as “consumed significantly more food”; in data set [1] (0.7 or 4 mg/kg intraperitoneally), “did not show any significant change”. In addition, in data set [2], the effect on eating result was “induced significant overeating”.
Take `CCCCC/C=C\C/C=C\C/C=C\C/C=C\CCCC(=O)O` [AA, arachidonic acid]: in data set [3] (ANOVA main effect), the “main effect on 20:4n-6 NAE in brain” value is reported as “increasing” and the “main effect on total n-6 NAE in brain” value is on record as “increasing”. Moreover, the “increase in 20:4n-6 NAE in brain” value in data set [3] (rats fed formulas with AA, p=0.008) amounted to 40%. Moreover, the “main effects on n-6 or n-3 MAG in brain” value in data set [4] is recorded as “no significant main effects”. In [5], the “main effect on AA and C22:4n-6 levels in brain phospholipids” value is “increasing”; the “main effect on brain phospholipid DHA” value was “decreasing”; the “main effect on linoleic acid (C18:2n-6) and C20:3n-6 levels in brain phospholipids” value is “decreasing”. Also, the “postprandial leptin levels lower than in rats fed formulas without ARA” value in data set [6] (ARA-containing formulas during formula feeding phase) is 20-30%. In the data set with brain NAEs and MAGs, the “20:4n-6 NAE increase in brain” value is given as 4 fold.
Regarding `CC/C=C\C/C=C\C/C=C\C/C=C\C/C=C\C/C=C\CCC(=O)O` [DHA, docosahexaenoic acid], the “rats that died when DHA was in the formula” value in [7] is 3 rats. Further, the “postprandial leptin levels higher than in rats fed formulas without DHA” value in data set [6] (DHA-containing formulas) is reported as 5-15%.
“leptin: peptide hormone secreted from adipose cells”: in data set [8], the “decrease of hypothalamic levels of 20:4n-6 NAE and 20:4n-6 MAG vs untreated controls” value was 40-50%.
